# In patent US20050069541A1, “Composition for and treatment of demyelinating diseases and paralysis by administration of remyelinating agents” (priority 2003, published 2005):
# How the values were obtained:
# [1] = test system: guinea pig model of CP-EAE; experiment: Remyelination and motor function in guinea pig CP-EAE; assay type: in vivo
# Text: The number of lesions showing myelin pallor was divided by the total number of lesions within cross sections of spinal cord taken throughout its length from each animal (FIG. 10) (for the method see Warrington et al., 2000, Proc. Nat'l Acad. Sci. USA 97: 6820-5). […] In contrast, after 20 days of N-[N-(3-pyridinesulfonyl)-L-3,3-dimethyl-4-thiaprolyl]-O-[1-methylpiperazin-4-ylcarbonyl]-L-tyrosine isopropyl ester administration, the frequency of shadow plaques in the spinal cord was increased over saline-treated animals, reaching 68%; after 30 and 40 days, the incidence was 77% and 87%, respectively (p<0.001, 2-way ANOVA with Tukey test).
# The overall degree of plaque remyelination in the spinal cord was also measured. […] Total lesion area was determined for each animal by tracing all lesions within all spinal cord sections and summing the areas. Likewise, the total area of remyelination was measured by tracing regions of myelin pallor. FIGS. 10C-F plot the total lesion area against the percentage of remyelination. In saline-treated animals, lesions rarely show any evidence of repair, with means ranging between 2 and 11%, and there were no significant differences over the 40-day treatment period (FIGS. 10C-F). In contrast, after 20, 30 or 40 days of N-[N-(3-pyridinesulfonyl)-L-3,3-dimethyl-4-thiaprolyl]-O-[1-methylpiperazin-4-ylcarbonyl]-L-tyrosine isopropyl ester treatment, the majority of lesions identified show a variable degree of remyelination ranged from 2 to 100% in the majority of lesions (mean area of remyelination approximately 50%) (FIGS. 10D-5). (p<0.001, 2-way ANOVA with Tukey test). Therefore while lesions were evident in all animals throughout the 40-day treatment period, N-[N-(3-pyridinesulfonyl)-L-3,3-dimethyl-4-thiaprolyl]-O-[1-methylpiperazin-4-ylcarbonyl]-L-tyrosine isopropyl ester increased the incidence and percentage of remyelination. Furthermore, evidence of remyelination in N-[N-(3-pyridinesulfonyl)-L-3,3-dimethyl-4-thiaprolyl]-O-[1-methylpiperazin-4-ylcarbonyl]-L-tyrosine isopropyl ester-treated animals is consistent with an observed regain of motor function. The starting point for treatment was a clinical score of 2, which denotes full bilateral hind limb paralysis. […] Functional recovery was never observed in control animals.
# [2] = test system: infiltrating cells in spinal cord; experiment: Chronic EAE: mean cell counts in spinal cord (H-E sections, 0.12 mm^2 fields); assay type: in vivo, guinea pig; conditions: for Mean # Cells/0.12 mm^2: spinal cord
# Method: To quantify the abnormalities observed in the spinal cord, sections stained with H-E were divided into 12 representative pie-shaped areas. In each area, the number of cells within a 0.12 mm^2 field of view was counted using Sigma Scan Pro image analysis software (SPSS Inc.), and the combined mean number of cells in all 12 areas was calculated for the whole spinal cord (36 fields of view per animal). Note that as all cell nuclei were counted, the number of cells may include neurons and glial cells in addition to infiltrates.
# α4 integrin = α4 integrin (Homo sapiens, UniProt P05556+P13612); experiment: Inhibition of cell adhesion to VCAM; assay type: cell-based, human and guinea pig; conditions: human and guinea pig integrin; read-out: IC50 for inhibition of cell adhesion to VCAM
# [3] = test system: spinal cord lesions of paralyzed EAE guinea pigs; experiment: Example 2: spontaneous remyelination in chronic EAE (SCR, toluidine blue, EM, lesion area analysis, motor function); assay type: in vivo, guinea pig
# [4] = test system: brain and spinal cord of EAE guinea pigs; experiment: Chronic EAE: histology and blinded pathological scoring of brain and spinal cord sections (H-E, SCR); assay type: in vivo, guinea pig
# Method: Animal Sacrifice and Histological Analysis. Untreated, chronic EAE animals (n=5) were sacrificed on day 40, as well as non-EAE controls (n=5). Following each 10-day treatment interval, 5 animals from each group were sacrificed (0.25 mL sodium pentobarbital), blood samples were collected for FACS analysis (see below), and the brain and spinal cord dissected and sectioned. Three spinal sections were used, corresponding to lumbar, thoracic and cervical regions of the cord. The brain was cut into five transverse sections. The first three proximal sections were combined in one block, and the last two distal sections in another. Tissues were fixed in 10% formalin and embedded in paraffin. […] sections were stained with hematoxylin-eosin (H-E) or solochrome-R-cyanlin (SCR) and evaluated by a blinded observer in each of four categories: (1) meningeal inflammation, (2) perivascular infiltration, (3) encephalitis or (4) myelitis and demyelination (Table 6). The combined pathological score represents the total score (out of a potential 20) from all 5 CNS sections in each animal.
# [5] = test system: α4 integrin on circulating lymphocytes and monocytes; experiment: Chronic EAE: FACS analysis of α4 integrin on circulating cells, day 80; assay type: in vivo, guinea pig
# Method: FACS Analysis. On day 80 post-immunization, heparinized blood samples were collected from non-EAE animals, saline-treated animals, N-[N-(3-pyridinesulfonyl)-L-3,3-dimethyl-4-thiaprolyl]-O-[1-methylpiperazin-4-ylcarbonyl]-L-tyrosine isopropyl ester-treated animals and animals 10 days following withdrawal of N-[N-(3-pyridinesulfonyl)-L-3,3-dimethyl-4-thiaprolyl]-O-[1-methylpiperazin-4-ylcarbonyl]-L-tyrosine isopropyl ester. All samples were maintained at 4° C. for all procedures. 150 μl samples were exposed to primary antibody for 30 minutes, washed twice, and then incubated with PE-conjugated goat anti-mouse IgG Fc in the presence of 5% guinea pig serum (Beckman Coulter #PN EM055 1). Red blood cells were lysed with Becton-Dickinson lysing solution and the samples were examined on a FACScan flow cytometer (Becton Dickinson, Mountain View, Calif.) gating on different cell populations by light scatter.
# [6] = test system: guinea pig model of CP-EAE; conditions: with increasing duration of treatment; Piraino et al., 2002; cited from earlier work
# α4 integrin, sequence (P13612 34-1032): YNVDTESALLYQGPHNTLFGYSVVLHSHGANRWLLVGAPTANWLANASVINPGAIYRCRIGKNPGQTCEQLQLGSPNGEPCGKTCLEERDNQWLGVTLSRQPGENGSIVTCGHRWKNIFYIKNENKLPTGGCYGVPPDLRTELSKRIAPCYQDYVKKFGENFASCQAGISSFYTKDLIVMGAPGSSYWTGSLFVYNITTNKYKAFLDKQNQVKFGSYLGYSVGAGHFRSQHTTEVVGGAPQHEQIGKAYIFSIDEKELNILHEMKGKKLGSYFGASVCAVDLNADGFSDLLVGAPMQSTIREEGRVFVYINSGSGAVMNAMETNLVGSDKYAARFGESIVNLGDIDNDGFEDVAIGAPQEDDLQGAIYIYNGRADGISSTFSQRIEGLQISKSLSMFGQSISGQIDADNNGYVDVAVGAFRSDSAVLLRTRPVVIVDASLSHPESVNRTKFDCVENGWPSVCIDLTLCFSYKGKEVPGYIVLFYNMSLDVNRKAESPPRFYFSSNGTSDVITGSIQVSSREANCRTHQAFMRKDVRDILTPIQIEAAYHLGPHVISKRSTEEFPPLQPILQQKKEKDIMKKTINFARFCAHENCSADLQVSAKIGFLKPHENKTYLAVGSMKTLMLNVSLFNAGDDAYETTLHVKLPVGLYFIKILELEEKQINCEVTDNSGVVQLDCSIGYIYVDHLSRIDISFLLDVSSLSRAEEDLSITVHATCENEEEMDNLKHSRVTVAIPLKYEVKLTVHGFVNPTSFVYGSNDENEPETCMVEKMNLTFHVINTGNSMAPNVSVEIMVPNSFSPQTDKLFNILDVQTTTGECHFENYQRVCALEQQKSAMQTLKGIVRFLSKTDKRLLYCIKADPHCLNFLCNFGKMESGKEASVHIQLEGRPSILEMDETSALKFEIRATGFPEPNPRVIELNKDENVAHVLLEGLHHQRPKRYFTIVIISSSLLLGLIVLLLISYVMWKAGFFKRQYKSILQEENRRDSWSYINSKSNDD
# α4 integrin, sequence (P05556 21-798): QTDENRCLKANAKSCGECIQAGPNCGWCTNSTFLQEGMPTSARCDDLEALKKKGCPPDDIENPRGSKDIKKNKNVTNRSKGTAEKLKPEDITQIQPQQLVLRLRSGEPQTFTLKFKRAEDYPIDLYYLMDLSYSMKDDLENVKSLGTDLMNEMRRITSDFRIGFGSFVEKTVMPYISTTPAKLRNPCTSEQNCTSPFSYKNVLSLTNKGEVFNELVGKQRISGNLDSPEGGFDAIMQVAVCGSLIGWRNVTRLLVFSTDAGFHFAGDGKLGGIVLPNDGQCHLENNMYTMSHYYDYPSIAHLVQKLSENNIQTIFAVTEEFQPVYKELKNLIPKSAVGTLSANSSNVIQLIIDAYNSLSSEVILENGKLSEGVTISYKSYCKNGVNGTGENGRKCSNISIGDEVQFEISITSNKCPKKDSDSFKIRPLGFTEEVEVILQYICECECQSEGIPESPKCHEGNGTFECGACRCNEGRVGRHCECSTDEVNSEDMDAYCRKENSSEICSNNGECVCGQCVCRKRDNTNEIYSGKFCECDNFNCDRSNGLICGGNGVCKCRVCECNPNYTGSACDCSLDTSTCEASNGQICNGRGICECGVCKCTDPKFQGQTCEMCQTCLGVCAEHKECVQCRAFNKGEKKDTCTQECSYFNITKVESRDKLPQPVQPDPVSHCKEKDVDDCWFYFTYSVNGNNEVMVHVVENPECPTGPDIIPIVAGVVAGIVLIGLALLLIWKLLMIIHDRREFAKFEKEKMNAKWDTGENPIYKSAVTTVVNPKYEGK
structure (smiles),measurement,setting,value
"CC(C)OC(=O)[C@H](Cc1ccc(OC(=O)N2CCN(C)CC2)cc1)NC(=O)[C@H]1N(S(=O)(=O)c2cccnc2)CSC1(C)C [N-[N-(3-pyridinesulfonyl)-L-3,3-dimethyl-4-thiaprolyl]-O-[1-methylpiperazin-4-ylcarbonyl]-L-tyrosine isopropyl ester]",mean area of remyelination,"[1]; after 20, 30 or 40 days of treatment",approximately 50%
same,percentage of plaques exhibiting evidence of remyelination (frequency of shadow plaques in the spinal cord),[1]; after 20 days of administration,68%
same,percentage of plaques exhibiting evidence of remyelination (incidence),[1]; after 30 days,77%
same,percentage of plaques exhibiting evidence of remyelination (incidence),[1]; after 40 days,87%
same,treated animals in which paralysis was reversed to a clinical score of 1,[1]; treatment started at clinical score of 2,50%
same,cell number in spinal cord versus saline-treated animals,"[2]; after 10, 20, 30 or 40 days, p<0.001 two-way ANOVA",significant reduction
same,mean cell counts versus chronic (d40) control EAE animals,"[2]; after 20, 30 or 40 days, p<0.05",significantly lower
same,mean cell count in spinal cord versus non-EAE animals,[2]; after 40 days of treatment,not different
same,mean cell count after removal of compound for 10 days versus continuous treatment,[2]; p<0.05,significant increase
same,rate of cell loss from spinal cord,"[2]; slope of linear regression of mean cell counts, r^2=0.90",8 cells/mm^2/day
same,Mean # Cells/0.12 mm^2,[2]; D50 (10 days of treatment),97 ± 3.9 cells/0.12 mm^2
same,Mean # Cells/0.12 mm^2,[2]; D60 (20 days of treatment),86 ± 4.2 cells/0.12 mm^2
same,Mean # Cells/0.12 mm^2,[2]; D70 (30 days of treatment),89 ± 8 cells/0.12 mm^2
same,Mean # Cells/0.12 mm^2,[2]; D80 (40 days of treatment),70 ± 4 cells/0.12 mm^2
same,IC50,α4 integrin,1 nM
same,"myelin repair, share of the total lesion area",[3]; 30 mg/kg twice daily s.c.,50%
same,SCR-stained spinal cord after 10 days of treatment,[3]; 10 days,minimal evidence of myelin pallor
same,SCR-stained spinal cord lesions after 20 days of treatment,[3]; 20 days,many lesions exhibited diffuse pale blue staining
same,SCR-stained spinal cord lesions after 40 days of treatment,[3]; 40 days,presented as shadow plaques
same,plaques showing evidence of remyelination,"[3]; after 40 days of treatment, 30 mg/kg twice daily s.c.",87%
same,semithin and EM sections of lesions,[3]; day 30 of treatment,multiple thin myelin layers around large caliber axons
same,animals that regained motor function,"[3]; paralyzed guinea pigs, clinical score 2 at start",50%
same,mean pathological score in each of four categories versus saline,"[4]; meningeal inflammation, perivascular infiltration, encephalitis/myelitis, demyelination, p<0.001 two-way ANOVA",significant decrease
same,mean combined pathological score after withdrawal for 10 days versus continued treatment,[4]; p<0.05 Kruskal Wallis,significantly higher
same,spinal cord histology after 20 days of treatment (day 60),[4]; versus saline,much smaller areas of demyelination
same,spinal cord histology after 40 days of treatment (day 80),[4]; versus saline,almost no meningeal and perivascular infiltration
same,percentage of α4 integrin bright lymphocytes in the circulation after removal of compound,[5]; 10 days after withdrawal,returned to saline-treated levels
same,increase of α4 integrin expression on circulating monocytes in EAE,[5]; day 80,not affected
same,α4 integrin bright lymphocytes in the circulation versus saline,[5]; day 80 post immunization,large increase
same,immune cell infiltrates and associated inflammatory mediators,[6],progressively reduce immune cell infiltrates
